Source: PubChem BioAssay AID1918952 (Molecular Pharmacology Branch, DTP, NCI, 2023)
Where “and” joins values, the source holds several entries; their conditions need not be identical. Equal entries are not always repeated.

Test system: LG0703-F948-PDC complex spheroid viability
Experiment: Anticancer human tumor LG0703-F948-PDC patient-derived lung adenocarcinoma cell line growth inhibition
Conditions: for viability, T/C: stronger effect = lower value
How it was run: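 Multicellular complex spheroids of tumor cells with human endothelial cells (HUVEC) and mesenchymal stem cells; the LSD1 inhibitor iadademstat was combined with standard-of-care or investigational agents. Top concentration at or near clinical Cmax, half-log dilutions; final DMSO ≤0.25%.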

[1] = curve of first compound, second compound 0.1 µM
[2] = curve of first compound, second compound 0.316 µM
[3] = curve of first compound, second compound 1 µM
[4] = curve of first compound, second compound 3.16 µM
[5] = curve of first compound, second compound 10 µM
[6] = second compound 0.1 µM, first compound 0.0316 µM
[7] = second compound 0.1 µM, first compound 0.1 µM
[8] = second compound 0.1 µM, first compound 0.316 µM
[9] = second compound 0.1 µM, first compound 1 µM
[10] = second compound 0.1 µM, first compound 3.16 µM
[11] = second compound 0.1 µM, first compound 10 µM
[12] = second compound 0.316 µM, first compound 0.0316 µM
[13] = second compound 0.316 µM, first compound 0.1 µM
[14] = second compound 0.316 µM, first compound 0.316 µM
[15] = second compound 0.316 µM, first compound 1 µM
[16] = second compound 0.316 µM, first compound 3.16 µM
[17] = second compound 0.316 µM, first compound 10 µM
[18] = second compound 1 µM, first compound 0.0316 µM
[19] = second compound 1 µM, first compound 0.1 µM
[20] = second compound 1 µM, first compound 0.316 µM
[21] = second compound 1 µM, first compound 1 µM
[22] = second compound 1 µM, first compound 3.16 µM
[23] = second compound 1 µM, first compound 10 µM
[24] = second compound 3.16 µM, first compound 0.0316 µM
[25] = second compound 3.16 µM, first compound 0.1 µM
[26] = second compound 3.16 µM, first compound 0.316 µM
[27] = second compound 3.16 µM, first compound 1 µM
[28] = second compound 3.16 µM, first compound 3.16 µM
[29] = second compound 3.16 µM, first compound 10 µM
[30] = second compound 10 µM, first compound 0.0316 µM
[31] = second compound 10 µM, first compound 0.1 µM
[32] = second compound 10 µM, first compound 0.316 µM
[33] = second compound 10 µM, first compound 1 µM
[34] = second compound 10 µM, first compound 3.16 µM
[35] = second compound 10 µM, first compound 10 µM
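Further: spheroids exposed to agents for seven days before readout.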
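Wherever viability, T/C is given: 100% = DMSO vehicle control wells as normalization base.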

`CC1COCCN1c1cc(C2(S(C)(=N)=O)CC2)nc(-c2ccnc3[nH]ccc23)n1` (stereo unspecified) + NC1CC1c1ccc(-c2cccc(O)c2)cc1 showed an IC50 [1] of 5000 nM, an IC50 [2] of 4650 nM and an IC50 [3] of 5240 nM. For the same compound, the IC50 [4] was 3550 nM, the IC50 [5] was 3920 nM and the viability, T/C [6] was 120%. The viability, T/C [7] was 104%, the viability, T/C [8] was 92.9% and the viability, T/C [9] was 92.1%. For the same compound, the viability, T/C [10] was 69.7%, the viability, T/C [11] was 24.1% and the viability, T/C [12] was 111%. For the same compound, the viability, T/C [13] was 101%, the viability, T/C [14] was 118% and the viability, T/C [15] was 97%. It also gave a viability, T/C [16] of 63.8%, a viability, T/C [17] of 23.6% and a viability, T/C [18] of 111%. The viability, T/C [19] was 97.9%, the viability, T/C [20] was 113% and the viability, T/C [21] was 102%. The viability, T/C [22] was 70.8%, the viability, T/C [23] was 23.4% and the viability, T/C [24] was 96%. It also gave a viability, T/C [25] of 89.8%, a viability, T/C [26] of 102% and a viability, T/C [27] of 79.5%. For the same compound, the viability, T/C [28] was 54.1%, the viability, T/C [29] was 22.4% and the viability, T/C [30] was 96.5%. It also gave a viability, T/C [31] of 98.9%, a viability, T/C [32] of 91.1% and a viability, T/C [33] of 79.7%. The viability, T/C [34] was 58.6% and the viability, T/C [35] was 14.8%.
For `COc1ccc([C@@H](O)c2cc(-c3ncnc4cc(N5CCOCC5)ccc34)c(F)cc2Cl)nn1` + NC1CC1c1ccc(-c2cccc(O)c2)cc1, the IC50 [1] was 1520 nM, the IC50 [2] was 1590 nM and the IC50 [3] was 1490 nM. It also gave an IC50 [4] of 1210 nM, an IC50 [5] of 1140 nM and a viability, T/C [6] of 90.3%. For the same compound, the viability, T/C [7] was 110%, the viability, T/C [8] was 96.5% and the viability, T/C [9] was 61%. For the same compound, the viability, T/C [10] was 27.2%, the viability, T/C [11] was 3.8% and the viability, T/C [12] was 112%. It also gave a viability, T/C [13] of 98.2%, a viability, T/C [14] of 98.7% and a viability, T/C [15] of 68.2%. The viability, T/C [16] was 23%, the viability, T/C [17] was 4.64% and the viability, T/C [18] was 98.8%. For the same compound, the viability, T/C [19] was 96.7%, the viability, T/C [20] was 98.7% and the viability, T/C [21] was 63.8%. For the same compound, the viability, T/C [22] was 21.7%, the viability, T/C [23] was 3.41% and the viability, T/C [24] was 107%. It also gave a viability, T/C [25] of 101%, a viability, T/C [26] of 86.1% and a viability, T/C [27] of 59.2%. For the same compound, the viability, T/C [28] was 16.3%, the viability, T/C [29] was 2.59% and the viability, T/C [30] was 108%. The viability, T/C [31] was 99.4%, the viability, T/C [32] was 90.4% and the viability, T/C [33] was 57.9%. It also gave a viability, T/C [34] of 7.24% and a viability, T/C [35] of 2.33%.
In the case of `O=C(C=Cn1cnc(-c2cc(C(F)(F)F)cc(C(F)(F)F)c2)n1)NNc1cnccn1` + NC1CCC(NC2CC2c2ccccc2)CC1, the IC50 [1] is reported as less than 3.16 nM, the IC50 [2] is reported as less than 3.16 nM and the IC50 [3] is reported as 9.15 nM. For the same compound, the IC50 [4] was 29 nM, the IC50 [5] was less than 3.16 nM and the viability, T/C (second compound 0.1 µM, first compound 0.00316 µM) was 45.3%. The viability, T/C (second compound 0.1 µM, first compound 0.01 µM) was 50.8%, the viability, T/C [6] was 37.8% and the viability, T/C [7] was 33%. The viability, T/C [8] was 30.6%, the viability, T/C [9] was 25.1% and the viability, T/C (second compound 0.316 µM, first compound 0.00316 µM) was 47.3%. It also gave a viability, T/C (second compound 0.316 µM, first compound 0.01 µM) of 47.5%, a viability, T/C [12] of 43.8% and a viability, T/C [13] of 31.8%. It also gave a viability, T/C [14] of 33%, a viability, T/C [15] of 33.9% and a viability, T/C (second compound 1 µM, first compound 0.00316 µM) of 56.6%. It also gave a viability, T/C (second compound 1 µM, first compound 0.01 µM) of 50.1%, a viability, T/C [18] of 44.5% and a viability, T/C [19] of 37.6%. It also gave a viability, T/C [20] of 29.7%, a viability, T/C [21] of 33.8% and a viability, T/C (second compound 3.16 µM, first compound 0.00316 µM) of 58.4%. It also gave a viability, T/C (second compound 3.16 µM, first compound 0.01 µM) of 57.2%, a viability, T/C [24] of 48.3% and a viability, T/C [25] of 41.1%. The viability, T/C [26] was 32.8%, the viability, T/C [27] was 30.2% and the viability, T/C (second compound 10 µM, first compound 0.00316 µM) was 41.7%. It also gave a viability, T/C (second compound 10 µM, first compound 0.01 µM) of 45.7%, a viability, T/C [30] of 45.7% and a viability, T/C [31] of 44.9%. For the same compound, the viability, T/C [32] was 37.4% and the viability, T/C [33] was 23.5%.
With `CC(C)c1c(-c2ccccc2)nc2c(C#N)c[nH]n2c1=O` the viability, T/C (compound 0.0316 µM) was 106% and 93%, the viability, T/C (compound 0.1 µM) was 91.8% and 84.6% and the viability, T/C (compound 0.316 µM) was 84.1% and 102%. The viability, T/C (compound 1 µM) was 100% and 86.9%, the viability, T/C (compound 3.16 µM) was 89.7% and 91% and the viability, T/C (compound 10 µM) was 75.7% and 79.8%. The IC50 (curve of compound) was greater than 10000 nM.
`COc1ccc([C@@H](O)c2cc(-c3ncnc4cc(N5CCOCC5)ccc34)c(F)cc2Cl)nn1` was tested, and the viability, T/C (compound 0.0316 µM) was 96.8% and 94.9%, the viability, T/C (compound 0.1 µM) was 95.5% and 89% and the viability, T/C (compound 0.316 µM) was 83.9% and 78.1%. For the same compound, the viability, T/C (compound 1 µM) was 64.1% and 62.8%, the viability, T/C (compound 3.16 µM) was 20.1% and 24% and the viability, T/C (compound 10 µM) was 3.89% and 4.14%. For the same compound, the IC50 (curve of compound) was 1400 nM and 1380 nM.
In the case of `COc1ccc([C@@H](O)c2cc(-c3ncnc4cc(N5CCOCC5)ccc34)c(F)cc2Cl)nn1` + NC1CCC(NC2CC2c2ccccc2)CC1, the IC50 [1] is reported as 1160 nM, the IC50 [2] is reported as 1170 nM and the IC50 [3] is reported as 1230 nM. For the same compound, the IC50 [4] was 1170 nM, the IC50 [5] was 1030 nM and the viability, T/C [6] was 100%. For the same compound, the viability, T/C [7] was 97.4%, the viability, T/C [8] was 88.4% and the viability, T/C [9] was 54.5%. The viability, T/C [10] was 17.4%, the viability, T/C [11] was 3.58% and the viability, T/C [12] was 92.3%. For the same compound, the viability, T/C [13] was 110%, the viability, T/C [14] was 87.3% and the viability, T/C [15] was 54.8%. It also gave a viability, T/C [16] of 18.7%, a viability, T/C [17] of 4.54% and a viability, T/C [18] of 110%. For the same compound, the viability, T/C [19] was 97.4%, the viability, T/C [20] was 84% and the viability, T/C [21] was 61.8%. For the same compound, the viability, T/C [22] was 16.1%, the viability, T/C [23] was 3.83% and the viability, T/C [24] was 112%. For the same compound, the viability, T/C [25] was 95.3%, the viability, T/C [26] was 89.6% and the viability, T/C [27] was 56.5%. The viability, T/C [28] was 16.7%, the viability, T/C [29] was 3.27% and the viability, T/C [30] was 118%. It also gave a viability, T/C [31] of 107%, a viability, T/C [32] of 92.4% and a viability, T/C [33] of 52.2%. It also gave a viability, T/C [34] of 12.4% and a viability, T/C [35] of 3.19%.
For `NS(=O)(=O)OCC1CC(n2ccc3c(NC4CCc5ccccc54)ncnc32)CC1O` (stereo unspecified), the viability, T/C (compound 0.00949 µM) was 103% and 93.6%, the viability, T/C (compound 0.03 µM) was 110% and 98.5% and the viability, T/C (compound 0.0949 µM) was 102% and 92.3%. The viability, T/C (compound 0.3 µM) was 74% and 62.3%, the viability, T/C (compound 0.949 µM) was 33.3% and 38.5% and the viability, T/C (compound 3 µM) was 15.6% and 20.2%. The IC50 (curve of compound) was 590 nM and 545 nM.
`CC1(C)CCC(CN2CCN(c3ccc(C(=O)NS(=O)(=O)c4ccc(NCC5CCOCC5)c([N+](=O)[O-])c4)c(Oc4cnc5[nH]ccc5c4)c3)CC2)=C(c2ccc(Cl)cc2)C1` + NC1CC1c1ccc(-c2cccc(O)c2)cc1 gave an IC50 [1] of 2720 nM, an IC50 [2] of 2470 nM and an IC50 [3] of 2640 nM. The IC50 [4] was 2340 nM, the IC50 [5] was 2370 nM and the viability, T/C [6] was 98.2%. It also gave a viability, T/C [7] of 113%, a viability, T/C [8] of 111% and a viability, T/C [9] of 98%. The viability, T/C [10] was 42.8%, the viability, T/C [11] was 3.56% and the viability, T/C [12] was 102%. The viability, T/C [13] was 103%, the viability, T/C [14] was 100% and the viability, T/C [15] was 103%. For the same compound, the viability, T/C [16] was 35.6%, the viability, T/C [17] was 3% and the viability, T/C [18] was 106%. The viability, T/C [19] was 104%, the viability, T/C [20] was 111% and the viability, T/C [21] was 85.6%. For the same compound, the viability, T/C [22] was 43.8%, the viability, T/C [23] was 5.17% and the viability, T/C [24] was 104%. The viability, T/C [25] was 81.7%, the viability, T/C [26] was 102% and the viability, T/C [27] was 111%. It also gave a viability, T/C [28] of 32.5%, a viability, T/C [29] of 3.01% and a viability, T/C [30] of 103%. For the same compound, the viability, T/C [31] was 104%, the viability, T/C [32] was 93.9% and the viability, T/C [33] was 86.4%. The viability, T/C [34] was 38% and the viability, T/C [35] was 3.13%.
